Structures can show the parent of a compound that is named as a salt.
Tests used:
[1] = cited from earlier work
[2] = Stability of raw API, stability indicating HPLC method; format: physicochemical; details: Sodium Fusidate compared with Fusidic acid, Tables 1 and 2
Description: In both studies the * Initial denotes the results of the samples tested at the time of receipt of the API from the supplier.

Row | SMILES | Protein binding [1] | stability as an API [2]
1 | Clc1ccccc1C(c1ccccc1)(c1ccccc1)n1ccnc1 [Clotrimazole, 1-(o-Chloro-α,α-diphenylbenzyl)imidazole] | about 90% | 
2 | CC(=O)O[C@H]1C[C@@]2(C)[C@@H](C[C@@H](O)[C@H]3[C@@]4(C)CC[C@@H](O)[C@@H](C)[C@@H]4CC[C@@]32C)/C1=C(\CCC=C(C)C)C(=O)O [Sodium Fusidate, 3μ,11μ,16β-Trihydroxy 29-nor-8μ,9β,13μ,14β-dammara-17(20)[10,21-cis], 24-dien-21-oic acid 16-acetate, sodium salt] |  | more stable than Fusidic acid
